# Where a name gives a salt, the structure may show the parent alone.
# Columns and labels:
# Assay type in all cases: physicochemical
# [1] = Water adsorption and desorption test (DVS, hygroscopicity); details: 25° C.; for change of hygroscopicity: under 80% humidity
# Description: DVS detection of the ammonium salt: instrument model: TA Q5000SA, balance at 25° C., humidity start from 0.00%, balance for 180 min, balance for 15 min when the weight gain is less than 0.01%, 10% gradient humidity increase from 0.00% to 90.00%, each gradient maintained for 120 min; a 10% gradient humidity reduction procedure performed when the humidity is from 90.00% to 0.00%, each gradient maintained for 120 min.
# DVS detection of other products: instrument model: SMS DVS Intrinsic, 0-95% RH, temperature: 25° C.
# The water adsorption and desorption tests of the compound (A) of example 1 at 25° C., 0 to 95% relative humidity were carried out by a dynamic water adsorber (DVS) to determine the hygroscopicity of the compound of formula (A).
# The water adsorption and desorption experiments of the crystalline form I of the compound of formula (A) prepared by methods of example 3 at 25° C., 0 to 95% relative humidity were carried out by a dynamic water adsorber (DVS) to determine the hygroscopicity of the crystalline form I of the compound of formula (A).
# The water adsorption and desorption experiments of the sample of example 6 at 25° C., 0 to 95% relative humidity were carried out by a dynamic water adsorber (DVS) to determine the hygroscopicity of the amorphous form of the compound of formula (A).
# [2] = Stability comparison test (main peak purity of the samples on storage); details: at 60° C. 60 days later (so in the source)
# [3] = Solid form and hygroscopicity of the salts as obtained (comparative examples); details: for hygroscopicity (in words) / solid form (in words): product as obtained
# Description: (§1) A crude product of ethyl (2R,4S)-5-(biphenyl-4-yl)-4-[(3-carboxypropionyl)amino]-2-methylpentanoate (52.4 g, 0.125 mol) and acetone (629 ml) were added to a 1 L three-necked flask equipped with a mechanical stirrer, stirred and dissolved at room temperature; cooled to 0-10° C. for 5-10 min, added dropwise with potassium hydroxide solution (25 ml, 5 mol/L), after the addition was completed, kept stirring for 1 h, concentrated to dryness, added with methanol (125 ml) or ethanol (125 ml), concentrated to dryness to give potassium 4((2S,4R)-1-([1,1′-biphenyl]-4-yl)-5-ethoxy-4-methyl-5-oxopentan-2-yl)amino)-4-oxobutanoate (AHU-377 potassium salt).
# as §1, with “min and” for “min,”, “sodium” for “potassium”, “sodium 4-(((2S,4R)-1-([1,1′-biphenyl]-4-yl)-5-ethoxy-4-methyl-5-oxopentan-2-yl)amino)-4-oxobutyrate” for “potassium 4((2S,4R)-1-([1,1′-biphenyl]-4-yl)-5-ethoxy-4-methyl-5-oxopentan-2-yl)amino)-4-oxobutanoate”
# A crude product of ethyl (2R,4S)-5-(biphenyl-4-yl)-4-[(3-carboxypropionyl)amino]-2-methylpentanoate (52.4 g, 0.125 mol) and acetone (629 ml) were added to a 1 L three-necked flask equipped with a mechanical stirrer, stirred and dissolved at room temperature: cooled to 0-10° C. for 5-10 min and added dropwise with a basic ammonium salt such as choline (15 g, 0.125 mol), after the addition was completed, kept stirring for 1 h, concentrated to dryness, added with methanol (125 ml) or ethanol (125 ml), and concentrated to dryness.
# [4] = Stability comparison test (main peak purity of the samples on storage); details: for decrease of purity: at 25° C. 60 days later
# Description: Each portion was about 100 mg, placed in a zip-lock bag and added with a desiccant, then three-layer packaged by a two-layer aluminum plastic material with each layer vacuumed, and stored at 25° C. (relative humidity 60%) and 40° C. […] Relevant substances of the samples were respectively determined at 0 day, 30 days, and 60 days later.
# [5] = Drug interaction test: stability of the mixture of crystalline form I of the compound of formula (A) + compound of formula (B)
# Description: The applicant has found through repeated studies in the research of drug compatibility that the compound of formula (A), the crystalline form I, single crystal, amorphous form, crystalline form II thereof have good compatibility with the compound of formula (I) described in CN103709154A. A specific compound of formula (B) was selected to be mixed with the crystalline form I of the compound of formula (A) prepared in example 3 of the present disclosure for further stability studies.
# [6] = 25° C. (relative humidity 60%), test time 0 day
# [7] = 25° C. (relative humidity 60%), test time 30 days
# [8] = 25° C. (relative humidity 60%), test time 60 days
# [9] = 40° C. (relative humidity 75%), test time 0 day
# [10] = 40° C. (relative humidity 75%), test time 30 days
# [11] = 40° C. (relative humidity 75%), test time 60 days
Structure (SMILES),decrease of purity [2] [%],hygroscopicity (in words) [3],solid form (in words) [3],"main peak purity [4, 6] [%]","main peak purity [4, 7] [%]","main peak purity [4, 8] [%]","main peak purity [4, 9] [%]","main peak purity [4, 10] [%]","main peak purity [4, 11] [%]",decrease of purity [4],also measured
CCOC(=O)C(C)CC(Cc1ccc(-c2ccccc2)cc1)NC(=O)CCC(=O)O (stereo not shown),,,,,,,,,,,"change of the form in DVS ([1]; range of 0 to 95% relative humidity, FIG. 15): do not change"
CCOC(=O)[C@H](C)C[C@@H](Cc1ccc(-c2ccccc2)cc1)NC(=O)CCC(=O)O [AHU-377 potassium salt],0.74,highly hygroscopic,failed to exhibit a good solid form,93.63,93.31,93.28,94.11,94.05,93.37,0.35%,
"CCOC(=O)[C@H](C)C[C@@H](Cc1ccc(-c2ccccc2)cc1)NC(=O)CCC(=O)[O-].[Na+] [AHU-377 sodium salt, sodium 4-(((2S,4R)-1-([1,1′-biphenyl]-4-yl)-5-ethoxy-4-methyl-5-oxopentan-2-yl)amino)-4-oxobutyrate]",0.26,highly hygroscopic despite less hygroscopic than potassium salt,does not exhibit a good solid form,94.12,94.16,93.75,94.12,94.06,93.86,0.37%,
"CCOC(=O)C(C)CC(Cc1ccc(-c2ccccc2)cc1)NC(=O)CCC(=O)O [Compound of formula (A), ammonium 4-((2S,4R)-1-([1, l′-biphenyl]-4-yl)-5-ethoxy-4-methyl-5-oxopentan-2-yl)amino)-4-oxobutanoate]",0.24,,,99.82,99.80,99.82,99.82,99.68,99.58,almost unchanged,"hygroscopicity ([1]; DVS, 0 to 95% relative humidity, FIG. 26): less than 2%; stability compared with the potassium salt and the sodium salt of AHU-377 [4]: far superior; stability compared with the organic ammonium salt of AHU-377 ([4]; by comparison in the same experiment): superior"
CCOc1nc2cccc(C(=O)OC(C)OC(=O)OCc3nc(C)c(C)nc3C)c2n1Cc1ccc(-c2ccccc2-c2noc(=O)[n-]2)cc1.[K+] (stereo not shown) [Formula (B)],,,,,,,,,,,stability of the potassium salt of formula (B) in the mixture with crystalline form I compared with formula (B) as a single component [5]: superior; Maximum unknown single impurity ([5]; test time 0 day): 0.05%; Total impurities ([5]; test time 0 day): 0.72%; Maximum unknown single impurity ([5]; test time 30 days): 0.05%; Total impurities ([5]; test time 30 days): 1.29%; Maximum unknown single impurity ([5]; test time 60 days): 0.06%; Total impurities ([5]; test time 60 days): 1.67%; Maximum unknown single impurity ([5]; test time 90 days): 0.04%; Total impurities ([5]; test time 90 days): 1.99%
CCOC(=O)C(C)CC(Cc1ccc(-c2ccccc2)cc1)NC(=O)CCC(=O)O (stereo not shown) [crystalline form I of the compound of formula (A)],,,,,,,,,,,change of hygroscopicity ([1]; DVS): do not change much; hygroscopicity compared with AHU-377 sodium salt and AHU-377 potassium salt [3]: significantly more hygroscopic
CCOC(=O)C(C)CC(Cc1ccc(-c2ccccc2)cc1)NC(=O)CCC(=O)O (stereo not shown) [crystalline form II],,,,,,,,,,,change of hygroscopicity ([1]; DVS): changes very little
"CCOC(=O)[C@H](C)C[C@@H](Cc1ccc(-c2ccccc2)cc1)NC(=O)CCC(=O)O [organic ammonium salt of 4 ((2S,4R)-1-([1,1′-biphenyl]-4-yl)]",,high hygroscopicity,cannot be obtained in a solid form,,,,,,,,

# — US11161803B2, “Ammonium carboxylate compound, crystalline form, amorphous form and preparation method thereof” (priority 2017, dated 2021)
